The results in this text go back to PMC4209782 (Biochemical Journal, 2014).

Where two headings read alike, the source gives them in different places.

Type in all cases: binding
For assay [1], the target named is T1, 3×FLAG–SGK3-(1–162) PX domain wild-type (Homo sapiens, UniProt Q96BR1).
T1 construct: reaction chamber containing wild-type 3×FLAG–SGK3-(1–162) PX domain; host or cells: E. coli BL21-CodonPlus (DE3)-RIL (from general methods, not tied expressly to this protein)
T1 sequence (Q96BR1 1-162): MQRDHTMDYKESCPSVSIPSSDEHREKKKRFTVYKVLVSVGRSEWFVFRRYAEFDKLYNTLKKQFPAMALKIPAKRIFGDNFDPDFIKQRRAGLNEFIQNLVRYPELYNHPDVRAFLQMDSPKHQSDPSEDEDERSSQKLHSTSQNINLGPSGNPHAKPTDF
Kind of assay: ITC, wild-type SGK3 PX domain. The conditions noted are these: 30°C. As to the method:
(§1) ITC experiments were carried out on a Microcal VP-ITC. A series of injections of peptide were made into an isolated chamber containing the protein at a constant temperature of 30°C. Heat changes within the cell were monitored during each injection of peptide and recorded as the total heat change per second over time. A binding isotherm was then fitted to data and expressed as the heat change per mol of peptide against the peptide/protein ratio. Injectant was PtdIns and PtdIns(3)P (Echelon) dissolved in buffer (50 mM Hepes, pH 7.4, and 150 mM NaCl). […] Data were analysed using Origin 7.0 with the Microcal software patch installed. […]
(§2) Figure 5 SGK3 binds to PtdIns(3)P via its PX domain (A) ITC was performed by gradually titrating 0.5 mM PtdIns(3)P into the reaction chamber containing wild-type 3×FLAG–SGK3-(1–162) PX domain (left panel) or mutant 3×FLAG–SGK3-(1–162) R50A PX domain (middle panel) and 3×FLAG–SGK3-(1–162) R90A PX domain (right panel). […] Kd were calculated using Origin 7.0 with ITC data analysis disc program. (B) The ability of the indicated GST fusion proteins to bind various phosphoinositides was analysed. […] The membranes were washed and the PX domain protein bound to the membrane by virtue of its interaction with lipid was detected using by using HRP-conjugated anti-FLAG antibodies (SGK3 PX domain) or anti-GST (PH domains).
Background: Isothermal titration calorimetry measures the heat released or taken up as one component is titrated into another.

For assay [2], the system named is T2, 3×FLAG–SGK3-(1–162) R50A PX domain.
T2 construct: mutant 3×FLAG–SGK3-(1–162) R50A PX domain (middle panel); host or cells: E. coli BL21-CodonPlus (DE3)-RIL (from general methods, not tied expressly to this protein)
The assay is described as follows: ITC, SGK3 PX domain R50A. The method, then: as §1, §2

In assay [3] the test system is T3, 3×FLAG–SGK3-(1–162) R90A PX domain.
T3 construct: 3×FLAG–SGK3-(1–162) R90A PX domain (right panel); host or cells: E. coli BL21-CodonPlus (DE3)-RIL (from general methods, not tied expressly to this protein)
The assay is described as follows: ITC, SGK3 PX domain R90A. As to the method: as §1, §2

Consider PtdIns(3)P, for which the Kd in assay [1] (read-out: Kd1) worked out at 1.8 µM; in assay [1] (read-out: Kd2), 5.2 µM. For the same substance, the “binding to PX domain with Arg50 to alanine mutation” value in assay [2] is reported as “abolished binding”. The “binding to PX domain with Arg90 to alanine mutation” value in assay [3] is listed as “abolished binding”.
